The source of these data is patent US12410457B2, “Use of rosmarinic acid in cell bioproduction” (BRISTOL-MYERS SQUIBB COMPANY, priority 2015, dated 2025).

What all share (type): cell-based, Chinese Hamster
The subject of assay [1] is aCD137 cells. The assay can be described thus: Screen of antioxidants added to feed media in aCD137 fed-batch cell culture. The settings on record: for VCD %: day 8 (peak VCD), basal media not supplemented; for VCD % / Titer %: normalized to control without antioxidant; for Titer %: final titer harvested day 14. The method, then:
Following the cell culture process described in Example 1, thirteen novel antioxidants (Table 1) were added to the feed media utilized in aCD137 cell culture. Three antioxidant concentrations were evaluated: 1 mM (Run #1-13), 0.25 mM (Run #17-29), and 0.0625 mM (Run #33-45). The antioxidants were dissolved in either pure ethanol or dimethyl sulfoxide (DMSO) at 50 mM stock concentration and added to feed media M154A1B at the designed final concentrations. The corresponding solvent negative controls were run number 16, 32, and 48. Two traditional antioxidants, ascorbic acid (Run #14, 30, and 46) and reduced glutathione (Run #15, 31, and 47), served as positive controls. The basal media M171IB was not supplemented with antioxidant.
(§1) Cells were cultured either in 50 ml spin tubes with an initial volume of 25 ml and a shaking speed of 300 rpm; or 250 ml shake flasks with an initial volume of 80˜100 ml and a shaking speed of 150 rpm on an orbital shaker with 25 mm throw distance. Temperature for the culture was controlled at constant 37° C. from the beginning of the culture and was shifted to 34° C. when viable cell density reached 10^6 cells/ml (usually on day 6) and CO2 was controlled at 6%.
(§2) A standard fed-batch culture process involved culturing the cells for 14 days with feeding beginning on day 3 at a feeding volume of 3.64% of initial culture volume. All the media used for cultures were chemically defined. Chemically defined feed media M154A1B is an enriched version of feed media F3.2. While the ingredient lists are the same between the two feed media, the concentration of a few of the ingredients is increased. Likewise, chemically defined basal media M17IB is an enriched version of basal media B1. For cultures in 7-liter or 500-liter reactors, dissolved oxygen (DO) was maintained at 50% and pH was controlled between 6.8 and 7.4.
(§3) Viable cell density (VCD) and cell viability were measured off-line using a CEDEX® automated cell counter (Innovatis AG). Culture samples were also analyzed off-line using a BIOPROFILE® 400 Analyzer to monitor pH, pCO2, pO2, glucose, glutamine, glutamate, lactate, and ammonium (Nova Biomedical Corporation). A Protein A HPLC method was used to measure protein titer, which were reported as normalized values.

The test system of assay [2] is aCD137 cells. As to the kind of experiment: aCD137 fed-batch culture with antioxidant in basal and/or feed media (shaker flask, 7-liter, 500-liter). The method, then: In another embodiment, the dhfr-negative Chinese Hamster Ovary (CHO) cell line DG44 (Invitrogen Corp. Carlsbad, CA) were transfected in order to establish a stable cell line expressing a human IgG4 antibody.
The transfected CHO DG44 cells expressing the antibody was grown in the presence of antioxidants according to the methods of the invention.
as §1, §2, §3

In assay [3] the test system is myostatin cells. As to the kind of experiment: Myostatin cell culture with antioxidant in basal and/or feed media (shake flask, 20-liter reactor). The method, then: (§4) In another embodiment, the dhfr-negative Chinese Hamster Ovary (CHO) cell line DG44 (Invitrogen Corp. Carlsbad, CA) was transfected in order to establish a stable cell line expressing a recombinant human fusion protein.
(§5) The transfected CHO DG44 cells expressing the fusion protein was grown in the presence of antioxidants according to the methods of the invention.
as §1, §2, §3

In assay [4] the test system is aCD40L cells. The assay can be described thus: aCD40L cell shake flask culture with catechin in feed media. The settings on record: feed media 154A1 at 0.34 μM, 3.45 μM, 34.45 μM, 344.52 μM; basal media M17IB without catechin; shake flasks. The method, then:
as §4, §5, §1
A standard fed-batch culture process involved culturing the cells for 14 days with feeding beginning on day 3 at a feeding volume of 3.64% of initial culture volume. All the media used for cultures were chemically defined. […]
Viable cell density (VCD) and cell viability were measured off-line using a CEDEX® automated cell counter (Innovatis AG). Culture samples were also analyzed off-line using a BIOPROFILE® 400 Analyzer to monitor pH, pCO2, pO2, glucose, glutamine, glutamate, lactate, and ammonium (Nova Biomedical Corporation). […]

Where [5] appears, read: 0.0625 mM in feed media M154A1B.
The mark [6] stands for this setting: feed at all three concentrations (0.0625-1 mM).
The mark [7] stands for this setting: basal media M17IB 0.07 mM and feed media M154A1B 1 mM, shaker flask fed-batch.
Where [8] appears, read: basal media B1 at 0.1 mM or feed media F3.2 at 1 mM or both, shake flask.
The mark [9] stands for this setting: basal media B1 at 0.1 mM, feed media F3.2, 20-liter bioreactor.
[10] abbreviates: basal media M17IB at 0.1 mM, feed media M154A1B, 7-liter fed-batch.
The mark [11] stands for this setting: basal media at 0.1 mM, 500-liter production run.
Setting [12] is: feed media F3.2 at 1 mM, basal media B1, shaker flask fed-batch.

As for `O=C(/C=C/c1ccc(O)c(O)c1)O[C@@H]1C[C@](O)(C(=O)O)C[C@@H](O)[C@H]1O` [Chlorogenic acid, chlorogenic acid], the VCD % in assay [1] (setting [5]) is listed as 115.85%; in assay [1] (0.25 mM in feed media M154A1B) it was 109.35%; in assay [1] (1 mM in feed media M154A1B), 129.57%. Also, the Titer % in assay [1] (setting [5]) was found to be 110.71%; in assay [1] (0.25 mM in feed media M154A1B), 109.92%; in assay [1] (1 mM in feed media M154A1B), 151.59%. Further, the protein titer entry was “increased protein titer” in assay [1] (setting [6]) and “increased” in assay [2] (setting [7]). Also, the viable cell density entry in assay [2] (setting [7]) is on record as “increased”.
In assay [1] (1 mM in feed media M154A1B), `Oc1ccc(-c2[o+]c3cc(O)cc(O)c3cc2O)cc1` [Pelargonidin, pelargonidin] came in with a VCD % of 104.47% and a Titer % of 118.25%.
In assay [1] (0.25 mM in feed media M154A1B), `O=c1c(O)c(-c2ccc(O)c(O)c2)oc2cc(O)cc(O)c12` [Quercetin, quercetin] had a VCD % of 119.28% and a Titer % of 111.90%. In assay [1] (1 mM in feed media M154A1B), this molecule gave a VCD % of 123.11% and a Titer % of 128.97%. In assay [1] (feed at 0.25 mM and 1 mM), the protein titer entry is recorded as “increased protein titer”. For the same molecule, in assay [2] (setting [7]), the protein titer result is recorded as “increased” and the viable cell density result is reported as “increased”.
For the molecule `Oc1ccc(C=Cc2cc(O)cc(O)c2)cc1` [Resveratrol, resveratrol], the VCD % in assay [1] (setting [5]) is on record as 102.53%; in assay [1] (0.25 mM in feed media M154A1B) it was 92.24%; in assay [1] (1 mM in feed media M154A1B), 107.48%. The Titer % in assay [1] (setting [5]) stood at 112.70%; in assay [1] (0.25 mM in feed media M154A1B), 111.90%; in assay [1] (1 mM in feed media M154A1B), 144.05%. In addition, the protein titer entry is “increased protein titer” in assay [1] (setting [6]) and “increased” in assay [2] (setting [7]). Besides, in assay [2] (setting [7]), the viable cell density result was “increased”.
For the molecule `O=C(/C=C/c1ccc(O)c(O)c1)O[C@H](Cc1ccc(O)c(O)c1)C(=O)O` [Rosmarinic acid, rosmarinic acid], the ammonium formation entry in assay [3] (setting [8]) and in assay [2] (setting [10]) was “reduced” each time. In addition, the protein titer result was “increased” in assay [3] (setting [8]); “effect on protein titer was maintained” in assay [3] (setting [9]); “increased protein titer” in assay [1] (setting [6]); “increased” in assay [2] (setting [7]); “increased” in assay [2] (setting [10]); “increased” in assay [2] (setting [11]). Besides, the viable cell density result in assay [3] (setting [8]) is “increased”; in assay [3] (setting [9]), “not changed”; in assay [2] (setting [7]) it was “increased”; in assay [2] (setting [10]), “increased”; in assay [2] (setting [11]) it was “increased”. The VCD % in assay [1] (setting [5]) was determined as 129.25%; in assay [1] (0.25 mM in feed media M154A1B), 125.43%; in assay [1] (1 mM in feed media M154A1B), 124.08%. Further, the Titer % came out at 132.14% in assay [1] (setting [5]), 146.83% in assay [1] (0.25 mM in feed media M154A1B) and 180.16% in assay [1] (1 mM in feed media M154A1B). Moreover, the lactate formation entry in assay [2] (setting [10]) and in assay [2] (setting [11]) was “reduced” each time.
In assay [1] (1 mM in feed media M154A1B), `COc1cc(C2Oc3cc([C@H]4Oc5cc(O)cc(O)c5C(=O)[C@@H]4O)ccc3OC2CO)ccc1O` (stereo partly drawn) [Silibinin, silibinin] yielded a VCD % of 99.11% and a Titer % of 144.44%.
Regarding catechin, the protein titer result in assay [3] (setting [9]) was “effect on protein titer was maintained”; in assay [1] (setting [6]) it was “increased protein titer”; in assay [2] (setting [7]), “increased”; in assay [2] (setting [10]), “increased”; in assay [2] (setting [12]) it was “increased”; in assay [4], “corresponds to an increase in catechin concentration”. Further, the viable cell density entry in assay [3] (setting [9]) is “not changed”; in assay [2] (setting [7]) it was “increased”; in assay [2] (setting [10]), “increased”; in assay [2] (setting [12]), “maintained”; in assay [4], “corresponds to an increase in catechin concentration”. The VCD % in assay [1] (setting [5]) was 98.66%; in assay [1] (0.25 mM in feed media M154A1B), 93.52%; in assay [1] (1 mM in feed media M154A1B), 102.01%. Also, the Titer % in assay [1] (setting [5]) is 111.90%; in assay [1] (0.25 mM in feed media M154A1B) it was 112.70%; in assay [1] (1 mM in feed media M154A1B) it was 116.67%. Also, the ammonium formation result in assay [2] (setting [10]) is on record as “reduced”. Besides, the lactate formation result in assay [2] (setting [10]) was “reduced”.
